Assays:
NanC (scheme A) = target: T1, NanC (scheme A) (Streptococcus pneumoniae, UniProt A0A0H2UQE4); assay: X-ray crystal structure, soak; assay type: binding
T1 construct: gene SP_1326; residues 28-740, signal peptide removed (CBM plus catalytic domain); pET21b, E. coli Rosetta (DE3), nickel column; 82 kDa

NanC CBM = target: T2, NanC CBM (Streptococcus pneumoniae, UniProt A0A0H2UQE4); assay: isothermal titration calorimetry; assay type: binding; conditions: 20 mM Tris pH 8, 50 mM NaCl; stoichiometry fixed 1:1; CBM site
T2 construct: gene SP_1326; purified by scheme A
T2 sequence (A0A0H2UQE4 entry or part of it): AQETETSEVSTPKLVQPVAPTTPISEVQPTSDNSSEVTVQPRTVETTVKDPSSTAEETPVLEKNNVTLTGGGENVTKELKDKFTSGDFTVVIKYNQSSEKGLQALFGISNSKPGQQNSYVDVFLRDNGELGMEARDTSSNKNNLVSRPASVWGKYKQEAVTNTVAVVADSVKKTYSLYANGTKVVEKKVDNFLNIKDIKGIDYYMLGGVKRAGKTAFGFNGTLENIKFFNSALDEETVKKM

T1 sequence (A0A0H2UQE4 entry or part of it): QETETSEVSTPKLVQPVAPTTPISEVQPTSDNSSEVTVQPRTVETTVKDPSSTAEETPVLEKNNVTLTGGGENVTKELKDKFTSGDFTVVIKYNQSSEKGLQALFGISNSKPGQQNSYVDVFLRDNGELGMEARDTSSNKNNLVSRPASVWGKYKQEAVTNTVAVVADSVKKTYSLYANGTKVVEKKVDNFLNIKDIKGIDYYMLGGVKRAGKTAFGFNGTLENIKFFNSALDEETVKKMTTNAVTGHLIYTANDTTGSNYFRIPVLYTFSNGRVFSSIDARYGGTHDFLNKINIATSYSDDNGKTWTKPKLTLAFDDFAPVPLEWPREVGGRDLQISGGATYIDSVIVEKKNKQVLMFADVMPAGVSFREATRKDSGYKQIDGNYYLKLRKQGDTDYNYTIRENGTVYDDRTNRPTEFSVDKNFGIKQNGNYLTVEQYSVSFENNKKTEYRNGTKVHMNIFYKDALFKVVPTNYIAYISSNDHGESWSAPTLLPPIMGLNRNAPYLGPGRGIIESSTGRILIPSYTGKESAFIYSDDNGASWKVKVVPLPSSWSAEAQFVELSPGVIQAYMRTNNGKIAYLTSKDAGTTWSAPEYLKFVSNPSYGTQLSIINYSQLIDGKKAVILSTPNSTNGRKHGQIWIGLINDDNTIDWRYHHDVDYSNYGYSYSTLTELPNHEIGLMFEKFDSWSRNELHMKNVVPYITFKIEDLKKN

Row | SMILES | Kd (NanC CBM) [µM] | further results
1 | CC(=O)N[C@H]1[C@H]([C@H](O)[C@H](O)CO)OC(F)(C(=O)O)C(F)[C@@H]1O (stereo partly shown) [2,3F-Neu5Ac] |  | X-ray crystal structure, soak (NanC (scheme A); covalent, active site Tyr-695 adduct 3F-β-Neu5Ac, 5 mM, 45 min soak, intact compound also in CBM site): 3F-β-Neu5Ac was covalently bound to Tyr-695 in an unstrained
2 | CC(=O)N[C@H]1[C@H]([C@H](O)[C@H](O)CO)O[C@@](O[C@H]2[C@@H](O)[C@@H](CO)O[C@@H](O[C@H]3[C@H](O)[C@@H](O)C(O)O[C@@H]3CO)[C@@H]2O)(C(=O)O)C[C@@H]1O (stereo partly shown) [3′SL] | 1480 | 
3 | CC(=O)N[C@H]1[C@H]([C@H](O)[C@H](O)CO)O[C@@](OC[C@H]2O[C@@H](O[C@H]3[C@H](O)[C@@H](O)C(O)O[C@@H]3CO)[C@H](O)[C@@H](O)[C@H]2O)(C(=O)O)C[C@@H]1O (stereo partly shown) [6′SL] | 1600 | 
4 | CCC(CC)O[C@@H]1C=C(C(=O)O)C[C@H](N)[C@H]1NC(C)=O [OC] |  | X-ray crystal structure, soak (NanC (scheme A); catalytic active site, 20 mM, 5 min soak): OC binds in the NanC active site
